Test results as given in PubChem BioAssay AID977624 (Broad Institute, 2014).
Inconclusive results are not listed. Activity calls are given as the source filed them.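 Rule for the calls: active = compound lowering the normal-ribosome reporter at least twice as much as the humanized-ribosome reporter, growth loss under a set limit; inconclusive = no clear call, values can overlap the other calls; inactive = the rest.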

The molecules below were run on E. coli wild-type GFP strain growth, fluorescence, 24 h (assay: wild-type E. coli growth inhibition versus h34 humanized strain – h34 mutant RFP, wild-type GFP, cherry-pick, dose response (AID 977624);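 note: wild-type GFP strain co-cultured with humanized h34 ribosome RFP strain in same well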).
For `COc1ccc(Br)c(-c2nc(CS(=O)(=O)c3ccc(F)cc3)no2)c1`, the AC50 was > 100 µM (inactive). In the case of `CC1CCN(CC(O)COCCC23CC4CC(CC(C4)C2)C3)CC1` (configuration not stated), the AC50 is reported as > 100 µM (inactive). With `O=C(O)c1ccc(-c2noc(-c3cccc(Cl)c3)n2)cc1` the AC50 was > 100 µM (inactive). `Cc1ccc(NC(=O)CN(C)S(=O)(=O)c2cccc3cccnc23)cc1F` was tested, and the AC50 was > 100 µM (inactive). With `CCN(CC)CCN(C(=O)C1CCCCC1)c1nc2cc3c(cc2s1)OCO3` the AC50 was > 100 µM (inactive). With `Cc1ccsc1C(=O)OCC(=O)N1CCc2ccccc2C1` the AC50 was > 100 µM (inactive). With `CC1(C(=O)NS(=O)(=O)c2cccc(Cl)c2)CCN1C(=O)C1(c2ccc(Cl)cc2)CCC1` (configuration not stated) the AC50 was > 100 µM (inactive). In the case of `O=C(COC(=O)c1n[nH]c2ccccc12)Nc1cccc(S(=O)(=O)N2CCOCC2)c1`, the AC50 is reported as > 100 µM (inactive). In the case of `Cc1cc(Br)ccc1SCC(=O)OCC(=O)NCc1ccco1`, the AC50 is reported as > 100 µM (inactive). `Cc1cc(NC(=O)CS(=O)(=O)c2cn(Cc3cccc(Br)c3)c3ccccc23)no1` was tested, and the AC50 was > 100 µM (inactive). With `O=C(Cc1coc2cc(O)ccc12)N1CCN(S(=O)(=O)c2ccc(Br)cc2)CC1` the AC50 was > 100 µM (inactive). With `Fc1cccc(Cc2c(-c3ccco3)nc3c4ccccc4ccn23)c1` the AC50 was > 100 µM (inactive). For `CCCN(CC1CC1)C(=O)CSc1ncnc2sccc12`, the AC50 was > 100 µM (inactive). For `CCN(C(=O)COC(=O)c1cn(-c2ccccc2)nc1-c1ccccc1)C1CCS(=O)(=O)C1` (configuration not stated), the AC50 was > 100 µM (inactive). With `O=C(CSc1nc2scc(-c3ccccc3)c2c(=O)[nH]1)N1CCCCC1` the AC50 was > 100 µM (inactive). In the case of `CC(OC(=O)CCc1nc2ccccc2c(=O)[nH]1)C(=O)c1ccc(Br)cc1` (configuration not stated), the AC50 is reported as > 100 µM (inactive). `COc1ccc(-c2ccc3ccccc3n2)cc1OC` was tested, and the AC50 was > 100 µM (inactive). For `CCCCc1ccc(S(=O)(=O)Nc2ccc(C)c(NS(C)(=O)=O)c2)cc1`, the AC50 was > 100 µM (inactive). `COc1cc(NC(=O)CSCc2ccc(Cl)cc2Cl)c(C(=O)O)cc1OC` was tested, and the AC50 was > 100 µM (inactive). In the case of `CCOc1ccc(S(=O)(=O)N(C)c2ccc(OCC(=O)Nc3ccc4[nH]c(=O)[nH]c4c3)cc2)cc1`, the AC50 is reported as > 100 µM (inactive). With `C[C@]12CCC3C(CC[C@H]4C[C@@H](O)CC[C@]34C)[C@H]1CC[C@H]2O` (some centres not stated) the AC50 was > 100 µM (inactive). `COC(=O)COc1ccc(Cl)cc1C1Nc2ccccc2C(=O)N1c1ccc(OC)cc1` (configuration not stated) was tested, and the AC50 was > 100 µM (inactive). With `CN(C)C(=O)C1C2NC(=S)N(c3cccc(Cl)c3)C1(C)Oc1ccc(Cl)cc12` (configuration not stated) the AC50 was > 100 µM (inactive). `C[C@@H]1CN([C@H](C)CO)C(=O)c2cccc(NC(=O)c3ccncc3)c2O[C@@H]1CN(C)S(=O)(=O)c1ccc(Cl)cc1` was tested, and the AC50 was > 100 µM (inactive). With `O=C(Cn1c2[n+](c3ccc(C(F)(F)F)cc31)CCCCC2)c1ccc2c(c1)OCCO2` the AC50 was > 100 µM (inactive). With `COc1cc(SC)ccc1C(=O)N1CCN(c2ccccc2F)CC1` the AC50 was > 100 µM (inactive). For `COc1ccccc1-c1ccc(SCc2cccc(F)c2)nn1`, the AC50 was > 100 µM (inactive). With `CC(C)(CC(=O)O)CC(=O)NCc1c(Cl)cccc1Sc1ccc(Cl)cc1` the AC50 was > 100 µM (inactive). For `Cc1cc(OCCCCOc2ccc(S(N)(=O)=O)c(C)c2)ccc1S(N)(=O)=O`, the AC50 was > 100 µM (inactive). With `O=C(NCc1nc2ccccc2[nH]1)c1ccc(S(=O)(=O)N2CCCC2)cc1` the AC50 was > 100 µM (inactive). `Cc1csc(SCc2nc3scc(-c4ccccc4)c3c(=O)[nH]2)n1` was tested, and the AC50 was > 100 µM (inactive). For `Cc1ccc(NC(=O)C2CCN(S(=O)(=O)c3ccc4c(c3)NC(=O)CO4)CC2)cc1`, the AC50 was > 100 µM (inactive). In the case of `NC(=O)c1sc2nnc(-c3ccccc3)c(-c3ccccc3)c2c1N`, the AC50 is reported as > 100 µM (inactive). For `COc1ccc2nc(SCC(=O)Nc3ccccc3OC)[nH]c2c1`, the AC50 was > 100 µM (inactive). In the case of `CCOc1ccc(S(=O)(=O)Nc2ccc(S(=O)(=O)N3CCCC3)cc2)cc1`, the AC50 is reported as > 100 µM (inactive). `COc1ccc2nc(SCC(=O)Nc3ccccc3)[nH]c2c1` was tested, and the AC50 was > 100 µM (inactive). With `CCC(=O)Nc1sc(Cc2ccc3c(c2)OCO3)c(C)c1C(N)=O` the AC50 was > 100 µM (inactive). For `COc1ccc(CNC(=O)Cc2cn(C)c3ccccc23)c(OC)c1`, the AC50 was > 100 µM (inactive). In the case of `CN1CCN(C(=O)C[C@H]2CC[C@@H]3[C@H](COC[C@@H](O)CN3C(=O)Nc3ccc(Cl)cc3)O2)CC1`, the AC50 is reported as > 100 µM (inactive). `O=C(Nc1cccc(-c2cn3ccccc3n2)c1)c1ccccc1` was tested, and the AC50 was > 100 µM (inactive). In the case of `COc1ccc2[nH]cc(CCNC(=O)C3CC(=O)N(c4ccc(Cl)cc4)C3)c2c1` (configuration not stated), the AC50 is reported as > 100 µM (inactive). In the case of `Fc1cccc(Cl)c1CSc1ccc(-c2ccco2)nn1`, the AC50 is reported as > 100 µM (inactive). `CC1(C)CC(=O)c2cnc(N3CCc4ccccc43)nc2C1` was tested, and the AC50 was > 100 µM (inactive). `CCCCC(=O)N1CCN(c2nc3ccc(Br)cc3s2)CC1` was tested, and the AC50 was > 100 µM (inactive). For `Cc1ccc(S(=O)(=O)Nc2ccccc2CNc2cccc(C)n2)cc1`, the AC50 was > 100 µM (inactive). For `Cc1ccc(S(=O)(=O)NCc2c(-c3ccccc3)noc2C)cc1`, the AC50 was > 100 µM (inactive). For `COc1cc2c(cc1OC)C1(C)N(CC2)C(C(C)=O)=NN1c1ccc(Cl)cc1` (configuration not stated), the AC50 was > 100 µM (inactive).
